Literature values as cited in patent US5212175A, “Benzothiophenyl benzothiophenylalkyl-N-terminal amino hydroxy β-amino acid derivatives” (G. D. Searle & Co., priority 1991, dated 1993).
Square brackets hold non-standard residues; d marks the D form. Peptide text beside a SMILES is read from it. * marks the point of attachment. Sta = CC(C)C[C@H](N)[C@@H](O)CC(=O)O; Isovaleryl = CC(C)CC(=O)*

Key:
pepsin = details: Umezawa et al, J. Antibiot. 1970
[1] = stated in words as a disadvantage
cathepsin D = details: Umezawa et al, J. Antibiot. 1970
renin = details: Umezawa et al, J. Antibiot. 1970
hog renin = details: after the injection of hog renin into nephrectomized rats; Gross et al, Science 1971

Compound: CC(C)CC(=O)N[C@H](C(=O)N[C@H](C(=O)N[C@@H](CC(C)C)[C@@H](O)CC(=O)N[C@@H](C)C(=O)N[C@@H](CC(C)C)[C@@H](O)CC(=O)O)C(C)C)C(C)C [pepstatin] (Isovaleryl-VV[Sta]A[Sta]-OH)
- inhibitor of pepsin (pepsin): inhibitor
- solubility [1]: low solubility
- inhibitor of cathepsin D (cathepsin D): inhibitor
- inhibitor of renin (renin): inhibitor
- reduce blood pressure in vivo (hog renin): reduce blood pressure
